These results are taken from patent publication US20100144820A1, “THERAPEUTIC HPPH DOSAGE FOR PDT” (Health Research, Inc., priority 2007, published 2010).

For data set [1], the system named is skin. The conditions noted are these: cited from earlier work.
The test system of data set [2] is tumor. The conditions noted are these: of body weight; cited from earlier work.
For data set [3], the system named is basal cell carcinoma. Briefly: Photodynamic therapy for treatment of basal cell carcinoma using HPPH. Format: in vivo, human. The source says: Table 1 gives results of a study of Photodynamic Therapy for the treatment of basal cell carcinoma using 2-(1-hexyloxyethyl)-2-devinyl pyropheophorbide-a (HPPH).
All dose data converted from actual drug dose in milligrams per square meter of surface area of patient assuming a 70 kg patient having a 2 m^2 surface area.

The subject of data set [4] is advanced obstructive endobronchial lung cancer. Briefly: Palliative treatment of advanced obstructive endobronchial lung cancer. Format: in vivo, human. The conditions noted are these: 0.1 mg/kg; for 2 Month FU response (patients) / Long Term FU outcome (patients): 48 HRS post injection. Here is the method: Palliative Treatment of Advanced Obstructive Endobronchial Lung Cancer For relief in breathing only. Long term responses not expected due to most patients having wide spread disease outside of the area treated by HPPH in the Bronchus. All HPPH doses were 0.1 mg/kg with exposure of 100 to 140 Joules per cm of diffusion fiber at 665±5 nm Light Energy 48 HRS Post Injection.

The subject of data set [5] is normal skin tissue. Briefly: Adverse effects for normal skin tissue exposed to 133 Joules/cm^2. The conditions noted are these: normal skin exposed to 133 Joules/cm^2. On the set-up: key: 1: faint erythema; 2: minimal erythema with sharp borders; 3: pronounced erythema without edema; 6: more than 10% of toxic dose causing peripheral neuropathy in animals. Format: in vivo, human. Here is the method:
Adverse effects for normal skin tissue when exposed to 133 Joules/cm^2 (approximately equivalent to 30 minutes of midday sun exposure in Northeastern United States): 1=faint erythema; 2=minimal erythema with sharp borders; 3=pronounced erythema without edema; 6- more than 10% of toxic dose causing peripheral neuropathy in animals.

The test system of data set [6] is bronchiogenic carcinoma. Kind of data set: Interluminal HPPH-PDT treatment of bronchiogenic carcinoma. Format: in vivo, human. As to conditions: 0.1 mg/kg, 75-85 J/cm, 48 HRS post injection. From the text:
Dosages are in Joules per cm length of light delivering optical fiber.

For data set [7], the system named is tumor. As to conditions: mice, 0.05 to 0.3 mg/kg, 135 Joules/cm^2; cited from earlier work.
For data set [8], the system named is dogs. The conditions noted are these: cited from earlier work.
The test system of data set [9] is high grade dysplasia-carcinoma in Barrett's Esophagus. Briefly: HPPH PDT of high grade dysplasia-carcinoma in Barrett's Esophagus. It is filed as in vivo, human. From the text:
Use of HPPH Photodynamic Therapy for treatment of high grade dysplasia-carcinoma in Barrett's Esophagus. All energy was at 175 Joules/cm at 665±5 nm Light Energy 48 HRS Post Injection. This was a single treatment. Based on studies with PHOTOFRIN®, it is expected that three treatments, instead of just one, would result in about an 77% cure rate.

The mark [10] stands for this setting: 0.075 mg/kg, 175 Joules/cm, 48 HRS post injection, single treatment.

Several values for one entry are separate records, joined by “and”; a condition that tells them apart may be missing. Identical values can stand only once. Entries after “also recorded” stand apart in the source; their conditions may differ. Like-named read-outs stand apart in the source and are kept apart here.

Consider porfimer sodium [PHOTOFRIN], for which the Reported phototoxicity entry in data set [1] (2 mg/kg dose, exposure to only 9 Joules/cm^2 of activating light) was “very serious erythema and necrosis”. Further, the “Lowest reasonable effective dose / required dose” value in [2] is on record as 2 mg/kg.

Turning to `CCCCCCOC(C)c1c(C)c2cc3nc(c4c5[nH]c(cc6nc(cc1[nH]2)C(C)=C6CC)c(C)c5C(=O)C4)C(CCC(=O)O)C3C` (stereo not drawn) [HPPH, 2-(1-hexyloxy)-2-ethyl-derivative of pyropheophorbide-a], the “Result of treatment of basal cell carcinoma” value in data set [3] (0.05 mg/kg*, 150 J/cm^2 @24 hr*, interpolated from 48 hr data) was “Complete”; in [3] (0.05 mg/kg*, 200 J/cm^2 @24 hr*, interpolated from 48 hr data), “Complete”; in [3] (0.07 mg/kg*, 150 J/cm^2 @24 hr*, interpolated from 48 hr data) it was “Complete”; in data set [3] (0.07 mg/kg*, 200 J/cm^2 @24 hr*, interpolated from 48 hr data), “Complete”; in data set [3] (0.07 mg/kg, 50 J/cm^2 @24 hr) it was “Fail and Partial and Complete”; in data set [3] (0.07 mg/kg, 100 J/cm^2 @24 hr), “Complete”. The “Result of treatment of basal cell carcinoma” value in data set [3] (0.07 mg/kg, 150 J/cm^2 @48 hr) is on record as “Complete”; in [3] (0.07 mg/kg, 200 J/cm^2 @48 hr) it was “Complete”; in data set [3] (0.09 mg/kg, 50 J/cm^2 @24 hr), “Partial; also recorded: Complete”; in data set [3] (0.09 mg/kg, 100 J/cm^2 @24 hr) it was “Complete; also recorded: Partial”; in data set [3] (0.09 mg/kg, 150 J/cm^2 @48 hr), “Complete”; in [3] (0.09 mg/kg, 200 J/cm^2 @48 hr), “Complete”. In addition, the “2 Month FU response (patients)” value stood at 1 CR/2 PR in data set [4] (100 J/cm), 3 PR in data set [4] (110 J/cm), 2 CR/1 PR in data set [4] (130 J/cm) and 1 CR in data set [4] (140 J/cm). Moreover, the “Long Term FU outcome (patients)” value in [4] (100 J/cm) is listed as 1 disease; in data set [4] (130 J/cm) it was 2 new; in [4] (140 J/cm), 1 new. In addition, in data set [4] (100 to 140 Joules per cm), the “Outcome upon long term follow up” value is recorded as “one was disease free”. In addition, the “Systemic or phototoxic side effects” value in [4] (100 to 140 Joules per cm) and in [6] was “No observable systemic or phototoxic side effects” each time. The “Palliative response (improved ability to breathe)” value in data set [4] (all cases, 100 to 140 Joules per cm) is “at least partial palliative response”. Besides, the “Adverse Effects Noted” value in data set [5] (0.05 mg/kg* (interpolated from 48 hr data)) is 1; in data set [5] (0.07 mg/kg* (interpolated from 48 hr data)), 1; in data set [5] (0.07 mg/kg), 1; in data set [5] (0.09 mg/kg) it was 1; in data set [5] (0.12 mg/kg* control (interpolated from 48 hr data)) it was 3 and 2; in [5] (0.17 mg/kg control), 3-6 and 2-6. In data set [7], the “Long term tumor response” value is recorded as “no or extremely little long term tumor response”. Moreover, in [8] (about 1.5 mg/kg in 0.1% Tween 80, test animals, toxicity said due to surfactant), the “Toxicity finding at lowest toxic dose” value is on record as “neuropathy is common”. In addition, the Lowest toxic dose entry in data set [8] (in 0.1% Tween 80 (polysorbate 80) surfactant solution, dogs) is on record as “about 1.5 mg/kg”. Also, the “2 mo/FU response (patients)” value in [9] (setting [10]) is given as 3 PR/2 CR; in data set [9] (0.1 mg/kg, 175 Joules/cm, 48 HRS post injection, single treatment), 4 PR/3 CR. For the same compound, the “Long Term/FU response (patients)” value in data set [9] (setting [10]) is recorded as 3 PR/2 CR. Also, the Expected cure rate in data set [9] (three treatments instead of one, expected based on studies with PHOTOFRIN) is reported as around 77%.

For `Oc1cccc(-c2c3nc(c(-c4cccc(O)c4)c4ccc([nH]4)c(-c4cccc(O)c4)c4nc(c(-c5cccc(O)c5)c5ccc2[nH]5)CC4)C=C3)c1` [FOSCAN], the Reported phototoxicity entry in data set [1] (30 minute sun exposure a full week after injection) is “serious erythema”.
